Experimental data as given in patent publication US6794402B2, “Bicyclic cyclohexylamines and their use as NMDA receptor antagonists” (Warner-Lambert Company, priority 2000, dated 2004).

Tests used:
NR1A/NR2B NMDA receptor = NR1A/NR2B NMDA receptor (Rattus norvegicus, UniProt P35439+Q00960); test: Electrophysiological assay at NMDA receptor subunits expressed in Xenopus oocytes; assay type: cell-based; details: cloned rat NR1A/NR2B in Xenopus oocytes, two-electrode voltage clamp, glutamate 100 μM + glycine 1-100 μM; read-out: NR1A/NR2B Oocyte IC50
Excerpt: Preparation of RNA. cDNA clones encoding the NR1A, NR2A, NR2B, and NR2C rat NMDA receptor subtypes were used (see, Moriyoshi, supra., 1991; Kutsuwada et al., supra., 1992; Monyer et al., supra, 1992; Ikeda et al., FEBS Lett., 1992;313:34-38; Ishii et al., J. Biol. Chem., 1993;268:2836-2843 for details of these clones or their mouse homologs). The clones were transformed into appropriate host bacteria and plasmid preparations were made with conventional DNA purification techniques. A sample of each clone linearized by restriction enzyme digestion […] was synthesized with T3 RNA polymerase. The cRNA was diluted to 400 ng/μL and stored in 1-μL aliquots at −80° C. until injection.
The Xenopus oocyte expression system. Mature female Xenopus laevis were anaesthetized (20-40 minutes) using 0.15% 3-aminobenzoic acid ethyl ester (MS-222), and 2 to 4 ovarian lobes were surgically removed. Oocytes at developmental stages IV-VI (Dumont J. N., J. Morphol., 1972;136:153-180) were dissected from the ovary still surrounded by enveloping ovarian tissues. Follicle-enclosed oocytes were microinjected with 1:1 mixtures of NR1A:NR2A, 2B or 2C; injecting 1 to 10 ng of RNA encoding each receptor subunit. NR1A encoding RNA was injected alone at ˜20 ng. Oocytes were stored in Barth's medium containing (in mM): NaCl, 88; KCl, 1; CaCl2, 0.41; Ca (NO3)2, 0.33; MgSO4, 0.82; NaHCO3, 2.4; HEPES 5; pH 7.4, with 0.11 mg/mL gentamicin sulphate. While oocytes were still surrounded by enveloping ovarian tissues, the Barth's medium was supplemented with 0.1% bovine serum. Oocytes were defolliculated 1 to 2 days following injections by treatment with collagenase (0.5 mg/mL Sigma Type I for 0.5-1 hr)-(Miledi and Woodward, J. Phsyiol., (Lond) 1989;416:601-621) and subsequently stored in serum-free medium.
Electrical recordings were made using a conventional two-electrode voltage clamp (Dagan TEV-200) over periods ranging between 3 to 21 days following injection (Woodward et al., Mol. Pharmacol., 1992;41:89-103). Oocytes were placed in a 0.1-mL recording chamber continuously perfused (5 mL-15 mL min^−1) with frog Ringer's solution containing (in mM): NaCl, 115; KCL, 2; BaCl2, 1.8; HEPES, 5; and pH 7.4. Drugs were applied by bath perfusion. Using oocytes expressing different subunit combinations of NMDA receptor, NMDA currents were activated by co-application of glutamate (100 μM) and glycine (1-100 μM). Inhibitory potency of the novel antagonists was assessed on responses elicited by fixed concentrations of glutamate and glycine, by measuring reductions in current induced by progressively increasing concentrations of antagonist.
Concentration-inhibition curves were fit with Equation 1.
I/Icontrol=1/(1+([antagonist]/10−^pIC50)^n) Eq. 1
In which Icontrol is the current evoked by agonists alone, pIC50=−log IC50, IC50 is the concentration of antagonist that produced half maximal inhibition, and n is the slope factor (De Lean et al., Am. J. Physiol., 1978;235:E97-102). For incomplete curves, analysis by fitting was unreliable and IC50 values were calculated by simple regression over linear portions of the curves (Origin: Microcal Software).

[1] = molecular target: T1, [3H]ifenprodil binding site, rat forebrain membranes (Rattus norvegicus, UniProt P35439+Q00960); test: [3H]Ifenprodil binding assay; details: 4 nM [3H]-ifenprodil, 2 hours at room temperature
T1 construct: membrane fraction was prepared from frozen adult rat forebrains; tissue Zivic-Miller Laboratories, Inc; host or cells: adult rat forebrain, washed buffy coat membrane fraction
How it was run: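 Washed rat forebrain buffy coat membranes (100-200 μg protein) were incubated with 4 nM [3H]ifenprodil in 20 mM HEPES-KOH pH 7.4 for 2 hours at room temperature, in triplicate, then filtered on PEI-soaked GF/B filters. Nonspecific binding was set with 1 mM ifenprodil. IC50 came from a one- or two-site competition fit.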

[2] = test system: 6-Hydroxydopamine-lesioned rats; test: 6-OHDA lesioned rat assay; assay type: in vivo; details: for 6-OHDA MED: minimum effective dose to potentiate contraversive rotation induced by L-DOPA methyl ester 10 mg/kg SC, 6-hour period; for 6-OHDA active/inactive at the given dose: statistically significant increase in contraversive rotations vs L-DOPA only
Description: 6-Hydroxydopamine-lesioned rats were used (see Ungerstedt U., Arbuthnott G. W., Quantitative recording of rotational behavior in rats after 6-hydroxy-dopamine lesions of the nigrostraiatal dopamine system. Brain Res., 1971;24(3):485-93). Adult male Sprague-Dawley rats were anesthetized with chloral hydrate and unilateral lesions of the nigrostriatal dopamine system were accomplished by infusion of 8 μg of 6-hydroxydopamine HBr (6-OHDA) into the right medial forebrain bundle. Rats were pretreated 30 minutes before surgery with desipramine HCl 25 mg/kg intraperitoneally (IP) to protect noradrenegic neurons, and pargyline 25 mg/kg IP to potentiate the effects of 6-OHDA. A minimum of 3 weeks after surgery, the rotational behavior induced by apomorphine HCL 50 μg/kg subcutaneously (SC) was assessed.
Rotational behavior was measured using an automatic rotometer system (Rotorat Rotational Activity System, MED Associates, Georgia, Vt.). Anti-parkinsonian activity was assessed as the ability of the compound to potentiate the contraversive rotation induced by L-DOPA methyl ester, 10 mg/kg SC, over a 6-hour period. Experiments were conducted using a crossover paradigm where each rat received either a vehicle plus L-DOPA, or the test compound plus L-DOPA, in randomized order. Rats were tested at 7-day intervals. In experiments in which the compound was tested orally, rats were food deprived for 16 hours. Statistical analysis between treatment groups were performed using a paired t-test. The results were reported in Table 1 as the minimum effective dose (MED) of compound (mg/kg) required to produce a statistically-significant increase in total contraversive rotations compared to rats receiving L-DOPA only.

Chain of NR1A/NR2B NMDA receptor (Q00960 27-1482, other chains not shown): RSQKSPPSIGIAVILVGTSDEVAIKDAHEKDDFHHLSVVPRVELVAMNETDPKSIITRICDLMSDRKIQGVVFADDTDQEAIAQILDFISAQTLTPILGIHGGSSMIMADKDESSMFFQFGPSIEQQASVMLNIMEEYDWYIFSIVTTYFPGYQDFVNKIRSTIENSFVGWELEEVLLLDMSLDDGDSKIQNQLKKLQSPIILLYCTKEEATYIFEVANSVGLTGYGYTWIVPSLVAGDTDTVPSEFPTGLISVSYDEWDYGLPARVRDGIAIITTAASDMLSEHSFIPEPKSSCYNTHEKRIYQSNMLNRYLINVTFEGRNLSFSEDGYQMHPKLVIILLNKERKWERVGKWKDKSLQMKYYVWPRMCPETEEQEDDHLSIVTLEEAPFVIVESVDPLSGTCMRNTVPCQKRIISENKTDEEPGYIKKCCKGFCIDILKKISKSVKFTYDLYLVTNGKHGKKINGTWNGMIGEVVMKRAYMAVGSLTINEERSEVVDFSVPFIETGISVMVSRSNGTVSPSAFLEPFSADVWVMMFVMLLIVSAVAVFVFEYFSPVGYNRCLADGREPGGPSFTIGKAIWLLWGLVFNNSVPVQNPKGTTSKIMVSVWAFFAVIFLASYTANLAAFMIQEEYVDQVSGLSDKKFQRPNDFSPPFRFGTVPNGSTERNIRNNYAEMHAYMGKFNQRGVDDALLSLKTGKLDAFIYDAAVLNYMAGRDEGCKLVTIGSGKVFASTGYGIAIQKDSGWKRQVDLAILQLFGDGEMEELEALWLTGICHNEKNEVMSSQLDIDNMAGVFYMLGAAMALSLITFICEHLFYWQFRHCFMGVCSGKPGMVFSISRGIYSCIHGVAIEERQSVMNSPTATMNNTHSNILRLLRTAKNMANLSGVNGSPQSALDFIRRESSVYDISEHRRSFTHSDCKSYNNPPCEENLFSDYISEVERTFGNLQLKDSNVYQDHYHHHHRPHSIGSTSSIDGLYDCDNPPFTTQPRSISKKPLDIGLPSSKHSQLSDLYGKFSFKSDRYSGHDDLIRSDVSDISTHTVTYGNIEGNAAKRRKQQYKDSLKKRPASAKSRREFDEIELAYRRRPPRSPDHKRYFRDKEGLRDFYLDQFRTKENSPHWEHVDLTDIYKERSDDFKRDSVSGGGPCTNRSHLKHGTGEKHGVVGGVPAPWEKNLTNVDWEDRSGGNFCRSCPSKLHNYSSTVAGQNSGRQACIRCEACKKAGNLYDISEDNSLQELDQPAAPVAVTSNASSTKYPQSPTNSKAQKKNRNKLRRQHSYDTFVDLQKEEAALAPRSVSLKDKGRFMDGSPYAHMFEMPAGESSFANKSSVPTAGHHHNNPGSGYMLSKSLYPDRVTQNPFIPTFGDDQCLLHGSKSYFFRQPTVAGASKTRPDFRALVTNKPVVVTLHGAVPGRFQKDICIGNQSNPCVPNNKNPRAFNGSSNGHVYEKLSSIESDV
T1 sequence (Q00960 27-1482, other chains not shown): as above

Row | IC50 (NR1A/NR2B NMDA receptor) [nM] | IC50 [1] [nM] | melting point [°C] | SMILES | 6-OHDA MED [2] [mg/kg] | 6-OHDA active/inactive at the given dose [2]
1 | – | 10 | 58 to 62 | CN(CCCc1ccccc1)[C@H]1CC[C@H](c2ccc3[nH]c(=O)oc3c2)CC1 [Example 17, 6-{trans-4-[Methyl(3-phenylpropyl)amino]cyclohexyl}-3H-benzoxazol-2-one] | 10 | active
2 | – | 79 | – | CCN(CCCc1ccc(F)cc1)[C@H]1CC[C@H](c2ccc3[nH]c(=O)oc3c2)CC1 [Example 25, 6-(trans-4-{Ethyl-[3-(4-fluorophenyl)propyl]amino}cyclohexyl)-3H-benzoxazol-2-one] | 10 | active
3 | 20 | 5 | – | Cc1ccc(CCCN[C@H]2CC[C@H](c3ccc4[nH]c(=O)oc4c3)CC2)cc1 [Example 13b, 6-[trans-4-(3-p-Tolylpropylamino)cyclohexyl]-3H-benzoxazol-2-one] | – | –
4 | – | 53 | – | CN(CCOc1ccccc1)[C@H]1CC[C@H](c2ccc3[nH]c(=O)oc3c2)CC1 [Example 22, 6-{trans-4-[Methyl(2-phenoxyethyl)amino]cyclohexyl}-3H-benzoxazol-2-one] | 10 | active
5 | 460 | 92 | – | O=c1[nH]c2ccc([C@H]3CC[C@H](NCC[S+]([O-])c4ccccc4)CC3)cc2o1 (stereo partly drawn) [Example 15, 6-[trans-4-(2-Benzenesulfinylethylamino)cyclohexyl]-3H-benzoxazol-2-one] | – | –
6 | – | 16 | – | Cc1ccc(CCCN(C)[C@H]2CC[C@H](c3ccc4[nH]c(=O)oc4c3)CC2)cc1 [Example 21, 6-{trans-4-[Methyl-3-(p-Tolylpropyl)amino]cyclohexyl}-3H-benzoxazol-2-one] | 10 | active
7 | 2500 | 1730 | – | O=c1[nH]c2ccc([C@H]3CC[C@H](NCCS(=O)(=O)c4ccccc4)CC3)cc2o1 [Example 16, 6-[trans-4-(2-Benzenesulfonylethylamino)cyclohexyl]-3H-benzoxazol-2-one] | – | –
8 | – | 357 | 182 to 184 | CN(C)c1ccc(CCCN(C)[C@H]2CC[C@H](c3ccc4[nH]c(=O)oc4c3)CC2)cc1 [Example 58, 6-(4-{[3(trans-4-Dimethylaminophenyl)propyl]methylamino}cyclohexyl)-3H-benzoxazol2-one] | – | –
9 | – | 25 | – | CN(CCSc1ccc(F)cc1)[C@H]1CC[C@H](c2ccc3[nH]c(=O)oc3c2)CC1 [Example 20, 6-{trans-4-[2-(4-Fluorophenylsulfanylethyl)methylamino]cyclohexyl}-3H-benzoxazol-2-one] | 30 | active
10 | – | 38 | – | CN(CCCc1ccc(C(F)(F)F)cc1)[C@H]1CC[C@H](c2ccc3[nH]c(=O)oc3c2)CC1 [Example 23, 6-{trans-4-[Methyl-3-(4-Trifluoromethylphenyl)propylamino]cyclohexyl}-3H-benzoxazol-2-one] | 10 | active

The next lines start with the molecule.

Row | SMILES | IC50 (NR1A/NR2B NMDA receptor) [nM] | IC50 [1] [nM] | melting point [°C] | 6-OHDA MED [2] [mg/kg] | 6-OHDA active/inactive at the given dose [2]
11 | C[C@@H](CCc1ccccc1)N[C@H]1CC[C@H](c2ccc3[nH]c(=O)oc3c2)CC1 [Example 10, 6-{trans-4-[(S)-1-Methyl-3-phenylpropylamino]cyclohexyl}-3H-benzoxazol-2-one] | 110 | 49 | 174 to 176 | – | –
12 | O=c1[nH]c2ccc([C@H]3CC[C@H](NCCSc4ccccc4)CC3)cc2o1 [Example 5a, 6-[trans-4-(2-Phenylsulfanylethylamino)cyclohexyl]-3H-benzoxazol-2-one] | 20 | 4 | – | – | –
13 | COc1ccc([C@H](O)[C@H](C)N[C@H]2CC[C@@H](c3ccc4[nH]c(=O)oc4c3)CC2)cc1 [Example 11b, 6-{cis-4-[(1S,2S)-2-Hydroxy-2-(4-methoxyphenyl)-1-methylethylamino]-cyclohexyl}-3H-benzoxazol-2-one] | 10000 | > 1000 | – | – | –
14 | Cc1ccc(CCCN[C@H]2CC[C@@H](c3ccc4[nH]c(=O)oc4c3)CC2)cc1 [Example 13a, 6-[cis-4-(3-p-Tolylpropylamino)cyclohexyl]-3H-benzoxazol-2-one] | 80 | 38 | – | – | –
15 | O=c1[nH]c2ccc([C@H]3CC[C@H](NCCCc4ccc(F)cc4)CC3)cc2o1 [Example 4a, 6-{trans-4-[3-(4-Fluorophenyl)propylamino]cyclohexyl}-3H-benzoxazol-2-one] | 20 | 7 | – | > 10.0 | inactive
16 | COc1ccc([C@H](O)[C@H](C)N[C@H]2CC[C@H](c3ccc4[nH]c(=O)oc4c3)CC2)cc1 [Example 11a, 6-{trans-4-[(1S,2S)-2-Hydroxy-2-(4-methoxyphenyl)-1-methylethylamino]-cyclohexyl}-3H-benzoxazol-2-one] | 55000 | > 1000 | – | – | –
17 | O=c1[nH]c2ccc([C@H]3CC[C@H](NCCSc4ccc(F)cc4)CC3)cc2o1 [Example 8, 6-{trans-4-[2-(4-Fluorophenylsulfanyl)ethylamino]cyclohexyl}-3H-benzoxazol-2-one] | 20 | – | – | – | –
18 | O=c1[nH]c2ccc([C@H]3CC[C@H](NCCNc4ccccc4)CC3)cc2o1 [Example 7, 6-[trans-4-(2-Phenylaminoethylamino)cyclohexyl]-3H-benzoxazol-2-one] | 90 | 37 | 293 to 295 | – | –
19 | C[C@H](CCc1ccccc1)N[C@H]1CC[C@H](c2ccc3[nH]c(=O)oc3c2)CC1 [Example 9, 6-{trans-4-[(R)-1-Methyl-3-phenylpropylamino]cyclohexyl}-3H-benzoxazol-2-one] | 60 | 15 | – | – | –
20 | C[C@H](N[C@H]1CC[C@H](c2ccc3[nH]c(=O)oc3c2)CC1)[C@H](O)c1ccccc1 (stereo in doubt) [Example 12, 6-{trans-4-[(1S,2R)-2-Hydroxy-1-methyl-2-phenylethylamino]cyclohexyl}-3H-benzoxazol-2-one] | 70000 | 22500 | – | – | –
